According to PMC4607679, “Intestinal Absorption of Ergostane and Lanostane Triterpenoids from Antrodia cinnamomea Using Caco-2 Cell Monolayer Model” (Natural Products and Bioprospecting, 2015):
Entries after “also recorded” stand apart in the source; their conditions may differ. Where two headings read alike, the source gives them in different places. Values belong to the compound of their own block, whether it stands above or below them.

Columns and labels:
Caco-2 cultures = assay: MTS assay on Caco-2 cultures; assay type: cell-based, human; details: 10 µM
Description: The pure compounds 5, 6, 10, 13 and 14 were added into the Caco-2 cultures at a final concentration of 10 µM.

[1] = cited from earlier work
[2] = Bidirectional transport across the Caco-2 cell monolayer (LC/MS/MS); details: human; for efflux ratio at 180 min, 10 µM / efflux ratio at 180 min, 25 µg/mL: Caco-2, Efflux ratio P BA/P AB; for efflux ratio at 180 min, 10 µM: as single compounds; for efflux ratio at 180 min, 25 µg/mL: in A. cinnamomea extract (25 µg/mL)
Caco-2 cell monolayer [3] = assay: as above; details: for Efflux ratio P BA/P AB: as single compounds; for Efflux ratio P BA/P AB / permeability through the Caco-2 cell layer: 10 µM; for decrease of PBA in extract compared to the single form: extract versus single compound; for P app P BA: BL to AP; for permeability through the Caco-2 cell layer: pure compounds
in vitro = details: human; for Papp A→B at 180 min, 25 µg/mL (extract) / Papp B→A at 180 min, 25 µg/mL (extract): Caco-2; for efflux ratio at 180 min, 25 µg/mL: Caco-2, Efflux ratio P BA/P AB
[4] = Leakage marker sodium fluorescein transport, AP to BL, Caco-2 monolayer integrity; assay type: in vitro ADME; details: human
Description: The integrity of cell monolayers was also assessed by the transport of the leakage marker sodium fluorescein. On day 21, the Caco-2 monolayers were rinsed twice with pre-warmed HBSS and were then incubated with the same solution at 37 °C for 30 min, on a shaker at 50 rpm. The fluorescein was pre-dissolved in 1 mM NaOH/H2O (1:10, v/v), and then diluted to 1 mM with an appropriate volume of HBSS. The sodium fluorescein and blank HBSS were added to the AP (0.5 mL) and BL side (1.5 mL), respectively. At 30, 60, 90, and 120 min, each 0.3 mL of the solution from BL side was collected, and replaced with an equal volume of HBSS. The sodium fluorescein intensity was determined with a Hitachi F-4500 fluorometer (excitation wavelength 490 nm, emission 525 nm).

Caco-2 cell monolayer [5] = details: human
[6] = Solubility (stated in words); details: both in the extract and single forms (13 and 14)
[7] = in A. cinnamomea extract (25 µg/mL)

Structure (SMILES): C=C(CC[C@@H](C)[C@H]1CC[C@H]2C3=C(C(=O)[C@H](O)[C@]12C)[C@@]1(C)CC[C@@H](O)[C@@H](C)[C@@H]1CC3=O)[C@@H](C)C(=O)O [compound 5, 25R-antcin H]
toxicity to the cells (MTS assay) (Caco-2 cultures): non-toxic | plasma exposure ([1]; rats, after A. cinnamomea): major plasma-exposed components | Papp A→B at 180 min, 10 µM ([2]; Caco-2): 37.2 ± 4.4 ×10⁻⁶ cm/s | Papp A→B at 180 min, 25 µg/mL (extract) ([2]; Caco-2): 39.5 ± 6.4 ×10⁻⁶ cm/s | Papp B→A at 180 min, 10 µM ([2]; Caco-2): 84.1 ± 13.5 ×10⁻⁶ cm/s | Papp B→A at 180 min, 25 µg/mL (extract) ([2]; Caco-2): 34.7 ± 3.6 ×10⁻⁶ cm/s | efflux ratio at 180 min, 10 µM [2]: > 2 | efflux ratio at 180 min, 25 µg/mL [2]: 0.88 | Efflux ratio P BA/P AB (Caco-2 cell monolayer [3]): 2.26 | decrease of PBA in extract compared to the single form (Caco-2 cell monolayer [3]): 50–60% | P app P BA (Caco-2 cell monolayer [3]; [7]): 3.0–3.8 ×10^−5 cm/s | permeability through the Caco-2 cell layer (Caco-2 cell monolayer [3]): could readily pass through; also recorded: high permeability

Structure (SMILES): C=C(CC[C@@H](C)[C@H]1CC[C@H]2C3=C(C(=O)C[C@]12C)[C@@]1(C)CCC(=O)[C@@H](C)[C@@H]1CC3)C(C)C(=O)O (mixture of isomers) [compound 11, (R/S)-antcin A]
Papp A→B at 180 min, 25 µg/mL (extract) (in vitro): 79.2 ± 4.2 ×10⁻⁶ cm/s | Papp B→A at 180 min, 25 µg/mL (extract) (in vitro): 47.9 ± 2.3 ×10⁻⁶ cm/s | efflux ratio at 180 min, 25 µg/mL (in vitro): 0.6

Papp A→B at 1 mM ([4]; 1 mM, day 21 monolayer, read-out: Papp value AP to BL side): < 1 ×10⁻⁶ cm/s | Papp A→B at 30 min, 1 mM ([4]; 30 min): 0.798 ± 0.199 ×10⁻⁶ cm/s | Papp A→B at 60 min, 1 mM ([4]; 60 min): 0.771 ± 0.144 ×10⁻⁶ cm/s | Papp A→B at 90 min, 1 mM ([4]; 90 min): 0.765 ± 0.14 ×10⁻⁶ cm/s | Papp A→B at 120 min, 1 mM ([4]; 120 min): 0.708 ± 0.298 ×10⁻⁶ cm/s
Structure (SMILES): O=C1OC2(c3ccc(O)cc3Oc3cc(O)ccc32)c2ccccc21 [sodium fluorescein]

Structure (SMILES): C=C(CC[C@@H](C)[C@H]1CC[C@H]2C3=C(C(=O)C[C@]12C)[C@@]1(C)CCC(=O)[C@@H](C)[C@@H]1C[C@@H]3O)[C@H](C)C(=O)O [compound 3, 25S-antcin C]
plasma exposure ([1]; rats, after A. cinnamomea): much lower plasma concentrations | Papp A→B at 180 min, 25 µg/mL (extract) ([2]; Caco-2): 68.2 ± 5.9 ×10⁻⁶ cm/s | Papp B→A at 180 min, 25 µg/mL (extract) ([2]; Caco-2): 49.9 ± 2.9 ×10⁻⁶ cm/s | efflux ratio at 180 min, 25 µg/mL [2]: 0.73

Structure (SMILES): C=C(CC[C@@H](C)[C@H]1CC[C@H]2C3=C(C(=O)C[C@]12C)[C@@]1(C)CC[C@@H](O)[C@](C)(O)[C@@H]1C[C@@H]3O)[C@@H](C)C(=O)O [compound 2, 25R-antcin K]
transport rate (Caco-2 cell monolayer [5]; Caco-2, 25 µg/mL): 112% | Papp A→B at 180 min, 25 µg/mL (extract) (in vitro): 57.4 ± 2.7 ×10⁻⁶ cm/s | Papp B→A at 180 min, 25 µg/mL (extract) (in vitro): 44.8 ± 3 ×10⁻⁶ cm/s | efflux ratio at 180 min, 25 µg/mL (in vitro): 0.78 | plasma exposure ([1]; rat, in vivo): major plasma-exposed components

Structure (SMILES): C=C(CC[C@@H](C(=O)O)[C@H]1C[C@H](O)[C@@]2(C)C3=CC[C@H]4C(C)(C)[C@@H](O)CC[C@]4(C)C3=CC[C@]12C)C(C)C [compound 8, dehydrosulphurenic acid]
solubility [6]: very low | permeability (Caco-2 cell monolayer [3]; both in the extract and single forms (13 and 14)): very low | permeability (Caco-2 cell monolayer [3]; in A. cinnamomea extract): poor permeability

Structure (SMILES): C=C(CC[C@@H](C)[C@H]1CC[C@H]2C3=C(C(=O)C[C@]12C)[C@@]1(C)CC[C@@H](O)[C@](C)(O)[C@@H]1C[C@@H]3O)[C@H](C)C(=O)O [compound 1, 25S-antcin K]
Papp A→B at 180 min, 25 µg/mL (extract) (in vitro): 78 ± 8.6 ×10⁻⁶ cm/s | Papp B→A at 180 min, 25 µg/mL (extract) (in vitro): 53.2 ± 3.1 ×10⁻⁶ cm/s | efflux ratio at 180 min, 25 µg/mL (in vitro): 0.68 | plasma exposure ([1]; rat, in vivo): major plasma-exposed components

Papp A→B at 30 min ([2]; Caco-2): 35.1 ± 10.6 ×10⁻⁶ cm/s | Papp A→B at 60 min ([2]; Caco-2): 37.6 ± 4.5 ×10⁻⁶ cm/s | Papp A→B at 90 min ([2]; Caco-2): 34.3 ± 4.6 ×10⁻⁶ cm/s | Papp A→B at 120 min ([2]; Caco-2): 38.1 ± 3.4 ×10⁻⁶ cm/s | PAB value of marker compound (Caco-2 cell monolayer [3]; marker compound, AP to BL (Table S5)): 3.81 ± 0.34 × 10^−5 cm/s
Structure (SMILES): CC(C)NCC(O)COc1cccc2ccccc12 (centres unmarked) [propranolol, reference compound]

Structure (SMILES): C=C(CC[C@@H](C)[C@H]1CC[C@H]2C3=C(C(=O)C[C@]12C)[C@@]1(C)CCC(=O)[C@@H](C)[C@@H]1CC3=O)[C@@H](C)C(=O)O [compound 10, 25R-antcin B]
toxicity to the cells (MTS assay) (Caco-2 cultures): non-toxic | plasma exposure ([1]; rats, after A. cinnamomea): much lower plasma concentrations | Papp A→B at 180 min, 10 µM ([2]; Caco-2): 28.3 ± 4.3 ×10⁻⁶ cm/s | Papp A→B at 180 min, 25 µg/mL (extract) ([2]; Caco-2): 41.1 ± 9.2 ×10⁻⁶ cm/s | Papp B→A at 180 min, 10 µM ([2]; Caco-2): 58.5 ± 5.8 ×10⁻⁶ cm/s | Papp B→A at 180 min, 25 µg/mL (extract) ([2]; Caco-2): 38.6 ± 3.2 ×10⁻⁶ cm/s | efflux ratio at 180 min, 10 µM [2]: > 2 | efflux ratio at 180 min, 25 µg/mL [2]: 0.94 | Efflux ratio P BA/P AB (Caco-2 cell monolayer [3]): 2.07 | decrease of PBA in extract compared to the single form (Caco-2 cell monolayer [3]): 50–60% | P app P BA (Caco-2 cell monolayer [3]; [7]): 3.0–3.8 ×10^−5 cm/s | permeability through the Caco-2 cell layer (Caco-2 cell monolayer [3]): could readily pass through; also recorded: high permeability | metabolites detected in the AP side (Caco-2 cell monolayer [3]; single compound 10 µM, 120 min (Fig. S2)): two hydrogenated metabolites

Structure (SMILES): C=C(CC[C@@H](C)[C@H]1CC[C@H]2C3=C(C(=O)[C@H](O)[C@]12C)[C@@]1(C)CC[C@@H](O)[C@@H](C)[C@@H]1CC3=O)[C@H](C)C(=O)O [compound 6, 25S-antcin H]
toxicity to the cells (MTS assay) (Caco-2 cultures): non-toxic | plasma exposure ([1]; rats, after A. cinnamomea): major plasma-exposed components | Papp A→B at 180 min, 10 µM ([2]; Caco-2): 31.4 ± 5.6 ×10⁻⁶ cm/s | Papp B→A at 180 min, 10 µM ([2]; Caco-2): 92 ± 13.4 ×10⁻⁶ cm/s | Papp B→A at 180 min, 25 µg/mL (extract) ([2]; Caco-2): 30.5 ± 3.8 ×10⁻⁶ cm/s | efflux ratio at 180 min, 10 µM [2]: > 2 | efflux ratio at 180 min, 25 µg/mL [2]: 0.99 | decrease of PBA in extract compared to the single form (Caco-2 cell monolayer [3]): 50–60% | P app P AB (Caco-2 cell monolayer [3]; in A. cinnamomea extract (25 µg/mL), AP to BL): 3.18 ± 0.34 ×10^−5 cm/s | P app P BA (Caco-2 cell monolayer [3]; [7]): 3.0–3.8 ×10^−5 cm/s | permeability through the Caco-2 cell layer (Caco-2 cell monolayer [3]): could readily pass through; also recorded: high permeability

Structure (SMILES): C=C(CC[C@@H](C)[C@H]1CC[C@H]2C3=C(C(=O)C[C@]12C)[C@@]1(C)CCC(=O)[C@@H](C)[C@@H]1C[C@@H]3O)[C@@H](C)C(=O)O [compound 4, 25R-antcin C]
plasma exposure ([1]; rats, after A. cinnamomea): much lower plasma concentrations | Papp A→B at 180 min, 25 µg/mL (extract) ([2]; Caco-2): 74.1 ± 19 ×10⁻⁶ cm/s | Papp B→A at 180 min, 25 µg/mL (extract) ([2]; Caco-2): 51.3 ± 2.7 ×10⁻⁶ cm/s | efflux ratio at 180 min, 25 µg/mL [2]: 0.69

Structure (SMILES): C=C(CC[C@@H](C)[C@H]1CC[C@H]2C3=C(C(=O)C[C@]12C)[C@@]1(C)CCC(=O)[C@@H](C)[C@@H]1CC3=O)[C@H](C)C(=O)O [compound 9, 25S-antcin B]
plasma exposure ([1]; rats, after A. cinnamomea): much lower plasma concentrations | Papp A→B at 180 min, 25 µg/mL (extract) ([2]; Caco-2): 26.5 ± 5.3 ×10⁻⁶ cm/s | Papp B→A at 180 min, 25 µg/mL (extract) ([2]; Caco-2): 27.6 ± 2.7 ×10⁻⁶ cm/s | efflux ratio at 180 min, 25 µg/mL [2]: 1.04

Structure (SMILES): CC(C)=CCC[C@@H](C(=O)O)[C@H]1C[C@H](O)[C@@]2(C)C3=CC[C@H]4C(C)(C)[C@H](O)CC[C@]4(C)C3=CC[C@]12C [compound 7, 3β,15α-dihydroxylanosta-7,9(11),24-triene-21-oic acid]
transport rate (Caco-2 cell monolayer [5]; Caco-2, 180 min, 25 µg/mL): 38.8% | Papp A→B at 180 min, 25 µg/mL (extract) (in vitro): 37.4 ± 4.3 ×10⁻⁶ cm/s | Papp B→A at 180 min, 25 µg/mL (extract) (in vitro): 35.7 ± 3.8 ×10⁻⁶ cm/s | efflux ratio at 180 min, 25 µg/mL (in vitro): 0.96
